Results: patent US12692396B2, “Fluorescent labeling agent and fluorescent dye” (artience Co., Ltd., priority 2020, dated 2026)

Experiments:
[1] = tested on: Human epithelium cancer cells A431; assay: Evaluation of cell toxicity of fluorescent labeling agent (cell counting kit-8, absorbance at 450 nm); assay type: cell-based; details: labeling agent left one hour, absorbance relative to DMSO medium solution regarded as one
Method: <Evaluation of Cell Toxicity of Fluorescent Labeling Agent>
(§1) Human epithelium cancer cells A431 were seeded in a 96-well plate (1×10^4 cells/well). Next, the A431 were cultured for 24 hours using an RPMI 1640 medium to which 10% fetal bovine serum (FBS) and 1% penicillin-streptomycin had been added in an incubator (37° C., 5% CO2-containing Air, humidified environment). As the RPMI 1640 medium, an RPMI-164-Medium manufactured by Sigma-Aldrich Inc. was used.
After cultivation, the medium was removed, the fluorescent labeling agents prepared in Examples 83 to 123 and Comparative Examples 25 to 37 and an RPMI 1640 medium containing 1% dimethyl sulfoxide (DMSO medium solution) were added thereto. These were left to stand in the incubator for one hour and then washed in the RPMI 1640 medium. 10 μL of a cell counting kit-8 (manufactured by Dojindo Laboratories.) was added to each well and left to stand in the incubator (37° C., 5% CO2-containing Air, humidified environment) for one hour. Next, the absorbance at 450 nm was measured using a plate reader (SPARK, manufactured by Tecan Trading AG).
The relative value of the absorbance of each fluorescent labeling agent when the absorbance of the well to which the DMSO medium solution had been added was regarded as one was calculated and evaluated based on the following standards. […] At the time of calculating the relative value of the absorbance of the fluorescent labeling agent, a value obtained by subtracting the absorbance before the addition of the cell counting kit-8 (manufactured by Dojindo Laboratories.) from the measured absorbance was used.
• P (Pass): 0.8 or more • F (Failure): Less than 0.8 <Evaluation of Fluorescence Intensity of Fluorescent Labeling Agent>

[2] = tested on: Human epithelium cancer cells A431; assay: Evaluation of fluorescence intensity of fluorescent labeling agent in labeled cells (plate reader); assay type: cell-based; details: one hour, FIG. 1, compared with fluorescent labeling agents 68 and 75
Method: as §1, with “environment).” for “environment). As the RPMI 1640 medium, an RPMI-164-Medium manufactured by Sigma-Aldrich Inc. was used.”
After cultivation, the medium was removed, and the fluorescent labeling agents prepared in Examples 127 to 167 and Comparative Examples 25 to 37 were added thereto and left to stand in the incubator for one hour. Next, these were washed in the RPMI 1640 medium. The fluorescence intensities were evaluated in fluorescence wavelength ranges shown in Table 22 using the plate reader (SPARK, manufactured by Tecan Trading AG).

phospholipids = assay: Evaluation of property of fluorescent dye being accumulated in phospholipids (labeling agent intensity / dye solution intensity); assay type: cell-based, Human; details: A431 cells, one hour; relative value, comparative compound 12 regarded as one; fluorescent wavelength range as in Table 22 (780-800 nm, 630-650 nm in last line)
Method: <Evaluation of Property of Fluorescent Dye being Accumulated in Phospholipids>
The property of each dye being accumulated in phospholipids was calculated from the fluorescence intensity integral value obtained from the fluorescent spectrum of the dye solution and the fluorescence intensity obtained from the fluorescence intensity of the fluorescent labeling agent using an expression (1). The relative value of the property of each fluorescent labeling agent being accumulated in phospholipids when the property of the comparative compound 12 being accumulated in phospholipids was regarded as one was calculated and evaluated based on the following standards. In a case where the relative value is evaluated as 3 or more, it can be said that each fluorescent dye has a favorable property of being accumulated in phospholipids.
• 4: The property of being accumulated in phospholipids is 4 or more. • 3: The property of being accumulated in phospholipids is 2 or more and less than 4. • 2: The property of being accumulated in phospholipids is 1 or more and less than 2. • 1: The property of being accumulated in phospholipids is less than 1. Property of being accumulated in phospholipids=fluorescence intensity of fluorescent labeling agent/fluorescence intensity of dye solution (1)

[3] = tested on: Human epithelium cancer cells A431; assay: Evaluation of visibility of cell (fluorescent microscope); assay type: cell-based; parameters: key: P (Pass): Clear; F (Failure): Unclear; details: A431 cells, labeling agent left one hour
Method: <Evaluation of Visibility of Cell>
as §1, with “The” for “Next, the”, “environment).” for “environment). As the RPMI 1640 medium, an RPMI-164-Medium manufactured by Sigma-Aldrich Inc. was used.”
After cultivation, the medium was removed, and the fluorescent labeling agents prepared in Examples 127 to 189 and Comparative Examples 25 to 37 were added thereto and left to stand in the incubator for one hour. Next, these were washed in the RPMI 1640 medium. The dark field images and fluorescent images of the cells were observed using a fluorescent microscope (manufactured by Keyence Corporation, BZ-X800) equipped with an excitation filter for an appropriate wavelength and a fluorescent filter and evaluated based on the following standards.
• P (Pass): Clear • F (Failure): Unclear
The evaluation results of the visibility of the cells labeled with the fluorescent labeling agents 1, 15, 19, 24, 25, 68, and 75 are sequentially shown in FIGS. 2 to 8 (magnification: 10 times, optical uptake time: 1 second).
The evaluation results of the visibility of the cells labeled with the fluorescent labeling agents 42 and 53 are sequentially shown in FIGS. 9 to 10 (magnification: 40 times, optical uptake time: 1 second).
From what has been described above, it has been clarified that the fluorescent labeling agent according to the embodiment of the present invention has excellent characteristics as a fluorescent labeling agent.

In the case of CCOc1cccc2c1C1=NC2=Nc2c3c(OCC)cccc3c3[n]2[Al]([O][Si](C)(C)CCCN)[n]2c(c4cccc(OCC)c4c2=NC2=NC(=N3)c3c(OCC)cccc32)=N1 [Fluorescent dye 1], the Cell toxicity [1] is reported as “P (P (Pass): 0.8 or more)”, the “fluorescence intensity of fluorescent labeling agent” value [2] is reported as “high fluorescence intensities” and the “Property of being accumulated in phospholipids” value (shortened to “Property of being accumulated”) (phospholipids) is reported as 4 (4: The property of being accumulated in phospholipids is 4 or more.). The Cell visibility [3] was “P”.
In the case of CCOc1cccc2c1C1=NC2=Nc2c3c(OCC)cccc3c3[n]2[Al]([O]P(=O)(CCC(=O)O)c2ccccc2)[n]2c(c4cccc(OCC)c4c2=NC2=NC(=N3)c3c(OCC)cccc32)=N1 (centres unmarked) [Fluorescent dye 15], the Cell toxicity [1] is reported as “P (P (Pass): 0.8 or more)”, the “fluorescence intensity of fluorescent labeling agent” value [2] is reported as “high fluorescence intensities” and the “Property of being accumulated” value (phospholipids) is reported as 4 (4: The property of being accumulated in phospholipids is 4 or more.). The Cell visibility [3] was “P”.
CCOc1cccc2c1C1=NC2=Nc2c3c(OCC)cccc3c3[n]2[Al]([O]P(=O)(CCC(=O)O)Oc2ccccc2)[n]2c(c4cccc(OCC)c4c2=NC2=NC(=N3)c3c(OCC)cccc32)=N1 (centres unmarked) [Fluorescent dye 18] was tested, and the Cell toxicity [1] was “P (P (Pass): 0.8 or more)”, the “Property of being accumulated” value (phospholipids) was 4 (4: The property of being accumulated in phospholipids is 4 or more.) and the Cell visibility [3] was “P”.
For CC[N+](CC)(CC)CCC[Si](C)(C)[O][Al]1[n]2c3c4cc(-c5ccccc5)ccc4c2N=C2N=C(N=c4c5cc(-c6ccccc6)ccc5c([n]41)=NC1=NC(=N3)c3ccc(-c4ccccc4)cc31)c1ccc(-c3ccccc3)cc12.[I-] [Fluorescent dye 20], the Cell toxicity [1] was “P (P (Pass): 0.8 or more)”, the “Property of being accumulated” value (phospholipids) was 4 (4: The property of being accumulated in phospholipids is 4 or more.) and the Cell visibility [3] was “P”.
With C[Si](C)(CCC[N+](c1ccccc1)(c1ccccc1)c1ccccc1)[O][Al]1[n]2c3c4cc(C5CCCCC5)c(C5CCCCC5)cc4c2N=C2N=C(N=c4c5cc(C6CCCCC6)c(C6CCCCC6)cc5c([n]41)=NC1=NC(=N3)c3cc(C4CCCCC4)c(C4CCCCC4)cc31)c1cc(C3CCCCC3)c(C3CCCCC3)cc12.[I-] [Fluorescent dye 21] the Cell toxicity [1] was “P (P (Pass): 0.8 or more)”, the “Property of being accumulated” value (phospholipids) was 4 (4: The property of being accumulated in phospholipids is 4 or more.) and the Cell visibility [3] was “P”.
With O=C(O)C(F)(F)C(F)(F)C(=O)NCCc1ccc(S(=O)(=O)[O][Al]2[n]3c4c5cc(C(F)(F)F)ccc5c3N=C3N=C(N=c5c6cc(C(F)(F)F)ccc6c([n]52)=NC2=NC(=N4)c4ccc(C(F)(F)F)cc42)c2ccc(C(F)(F)F)cc23)cc1 [Fluorescent dye 27] the Cell toxicity [1] was “P (P (Pass): 0.8 or more)”, the “Property of being accumulated” value (phospholipids) was 4 (4: The property of being accumulated in phospholipids is 4 or more.) and the Cell visibility [3] was “P”.
In the case of CCCCCCCCCCCCCCCCCCc1ccc2c(c1)C1=NC2=Nc2c3cc(CCCCCCCCCCCCCCCCCC)ccc3c3[n]2[Al]([O]S(=O)(=O)c2ccc(CCNC(=O)C(CC(=O)O)OC(C)=O)cc2)[n]2c(c4ccc(CCCCCCCCCCCCCCCCCC)cc4c2=NC2=NC(=N3)c3cc(CCCCCCCCCCCCCCCCCC)ccc32)=N1 (centres unmarked) [Fluorescent dye 28], the Cell toxicity [1] is reported as “P (P (Pass): 0.8 or more)”, the “Property of being accumulated” value (phospholipids) is reported as 4 (4: The property of being accumulated in phospholipids is 4 or more.) and the Cell visibility [3] is reported as “P”.
CC(C)C(CC(=O)O)C(=O)NCCc1ccc(S(=O)(=O)[O][Al]2[n]3c4c5cc(C(C)(C)C)ccc5c3N=C3N=C(N=c5c6cc(C(C)(C)C)ccc6c([n]52)=NC2=NC(=N4)c4ccc(C(C)(C)C)cc42)c2ccc(C(C)(C)C)cc23)cc1 (centres unmarked) [Fluorescent dye 29] was tested, and the Cell toxicity [1] was “P (P (Pass): 0.8 or more)”, the “Property of being accumulated” value (phospholipids) was 4 (4: The property of being accumulated in phospholipids is 4 or more.) and the Cell visibility [3] was “P”.
